Measured values published in patent US20250212873A1, “VOLATILE HDAC INHIBITORS FOR THERAPEUTIC AND PLANT APPLICATIONS” (The Regents of the University of California, priority 2022, published 2025).
“Also recorded” adds a separate entry of the source.

How the values were obtained:
[1] = tested on: Arabidopsis thaliana seedlings; assay: Odor Exposure assay, Arabidopsis thaliana seedlings (root and leaf development); type: in vivo
Description: The Odor Exposure assay consists of controlled exposure of volatile odor compounds to model plant Arabidopsis within enclosed aquariums and similar growth conditions (23° C. with a 12-hour light/dark cycle). For Arabidopsis, seedlings were aligned on agar plates for growth after a 4-day cold treatment process. The agar plates with seedlings were then placed in enclosed aquariums with moist paper towels soaked in 10 ml of DI water for humidity. The plates were placed along the wall, approximately 12 cm from odor dispensers which resided in the center of the glass tank.
The test compound odor dispensers, consisting of (60×15 mm) polystyrene Petri dishes containing 2 ml of 1% v/v in PO, are replaced at the 3.5, 5, and 6-day time mark during the 7-day experiment. Root growth is marked during each time mark and the plates were imaged. The plants are to be collected after the 7-day exposure, photographed, and the leaves/roots carefully dissected separated, flash frozen in liquid nitrogen, and preserved for future sequencing. Root growth is measured using ImageJ.
In order to study the physiological effects of long-term exposure to microbial volatiles the model system Arabidopsis was exposed for […] to diacetyl, a volatile chemical emitted by fermentation by yeast or microbial degradation in the soil associated with roots (R. J. Morcillo et al., EMBO J 39, e102602 (2020); M. A. Farag, et al., Phytochemistry 67, 2262-2268 (2006); and C. M. Ryu et al., P Natl Acad Sci USA 100, 4927-4932 (2003). The Odor Exposure assay consisted of controlled exposure of volatile HDAC inhibiting compounds to model plant Arabidopsis within enclosed aquariums and similar growth conditions. The test compound odor cartridges, consisting of 60×15 mm polystyrene Petri dishes containing 2 ml of indicated concentration in Paraffin Oil, were replaced at the 3.5, 5, and 6-day time mark during the 7-day experiment (FIG. 1A, left). In separate experiments the weight loss from the odor cartridges over time was measured and used it to calculate the concentration of diacetyl in the glass chambers in parts per million (FIG. 1A, right).
In order to directly evaluate whether exposure to vapors of the four HDAC-inhibitory VOCs affect root development, we performed a set of experiments using A. thaliana seedlings as before. Solutions for each of the four chemicals on a small petri dish were placed away from the seedlings growing in agar plate and enclosed in glass tank. The Root tips were marked at specified days post treatment start and photographs analyzed. The plants were collected after the 7-day exposure, photographed, and the roots were separated. Detailed measurements were made from the photos using ImageJ and the root length and numbers of lateral roots quantified at day 3.5 and day 7 after start if the treatment (FIG. 1B).
The Odor Exposure assay consists of controlled exposure of volatile odor compounds to model plant Arabidopsis within enclosed aquariums and similar growth conditions (23° C. with a 12-hour light/dark cycle). The test compound odor cartridges, consisting of (60×15 mm) polystyrene Petri dishes containing 2 ml of 1% v/v in paraffin oil (PO), were replaced at the 3.5, 5, and 6-day time mark during the 7-day experiment. Root growth was marked during each time point and the plates were imaged. Numbers of true leaves were also counted. The plants are to be collected after the 7-day exposure, photographed, and the leaves/roots carefully dissected separated, flash frozen in liquid nitrogen, and preserved for future sequencing. Root growth is measured using ImageJ.

[2] = tested on: Arabidopsis thaliana roots; assay: RNA-Seq of roots of diacetyl vapor exposed Arabidopsis seedlings; type: in vivo
Description: In order to understand the molecular changes occurring with the volatile exposure and possibly underlying this developmental phenotype, an RNA-Seq analysis of the roots in diacetyl exposed vs control was performed. A large number of differentially expressed genes (DEGs) was found in the roots of the diacetyl vapor exposed Arabidopsis. 5197 differentially expressed genes (DEGs) (false discovery rate, FDR<0.05) were identified in the root transcriptome of diacetyl-exposed seedlings compared to control.
A. thaliana plants (Col-0) were grown in an Agar medium were synchronized to germinate using pre-treatment in cold. Exposure experiments were started using plants the plates when they were 11 days old and placed in a 10-gallon glass aquarium as a chamber along with a petri dish containing 1 ml of chemical dissolved in PO or PO alone were placed at the other side of the container. After the desired exposure, the roots were separated, and a Trizol-based RNA isolation was carried out as above. Two biological replicates were performed for each condition, with an average of 68,355,820 reads/replicate, with an average of 95% mapped. Multiplexed libraries were made from total RNA input using the Illumina TruSeq RNA sample preparation kit (v2) and 50 bps single-end sequencing was done using the NextSeq500.

[3] = tested on: A. thaliana plants (Col-0); assay: Cold tolerance assay; type: in vivo, Arabidopsis thaliana; settings: cold treatment to -10° C., scored after 5 days; controls ~30%
Description: HDACs have also been implicated in responses to a number of abiotic stresses, such as temperature, drought, salt, etc in a variety of ways (M. Luo, et al., Frontiers in Plant Science 8, (2017)). One of the phenotypes that can be rapidly tested in a laboratory is tolerance to cold temperatures in Arabidopsis. […] The yellowing of leaves was determined after 5 days and the controls ˜30% of the leaves turned yellow-brown in the classic cold response previously documented.
Twenty six day old A. thaliana plants (Col-0), that had been transplanted at day 7 to soil, were cold-acclimatized the plants for 7 days at 4° C., and then transferred to respective odor exposure chambers with a petridish containing 2 ml of chemical dissolved in PO or PO alone in a freezing chamber in which temperatures went down every 2° C. for 0.5 h and maintained for 1 hour, and it dropped up to −10° C. […] The survival rate was determined after 5 days. […] One-way analysis of Variance (ANOVA) between groups was performed for plant exposure quantitative data using Graph Pad Prism 9.

[4] = tested on: Arabidopsis thaliana seedlings; assay: Odor Exposure assay, Arabidopsis thaliana seedlings (root and leaf development); type: in vivo; settings: 10-fold lower dose (0.1% solution headspace)
[5] = 7-day exposure, headspace of 1% v/v in Paraffin oil

CC(=O)C(C)=O [2,3-butanedione] was tested, and the root growth ([1]; 3.5-day exposure, headspace of 1% v/v in Paraffin oil) was “significant root growth inhibition”, the “lateral root growth (number of lateral roots)” value [1, 5] was “increase; also recorded: notable lateral root promotion; also recorded: significant phenotypic changes” and the “leaf development (number of large / true leaves)” value [1, 5] was “changes in the number of true leaf development/growth; also recorded: significant phenotypic changes”. For the same compound, the “lateral root growth (number of lateral roots)” value ([1]; 7-day exposure, headspace of 1% v/v in Paraffin oil, listed as 2,3-butandione) was “promoted lateral root growth”, the “leaf development (number of large / true leaves)” value ([1]; 7-day exposure, headspace of 1% v/v in Paraffin oil, listed as diacetyl) was “significant decreases” and the “root growth (primary root length)” value ([1]; 7-day exposure, headspace of solution in Paraffin oil) was “lack of growth”. For the same compound, the “lateral roots, number relative to control” value ([1]; highest dose, 7-day exposure) was ~3 times, the “differentially expressed genes (DEGs) in the root transcriptome” value ([2]; 1% (v/v) headspace, 7 days, FDR<0.05) was 5197 genes and the “significantly down-regulated genes in roots” value ([2]; log2 fold-change<-1, FDR<0.05) was 2572 genes. For the same compound, the “significantly up-regulated genes in roots” value ([2]; log2 fold-change>1, FDR<0.05) was 2625 genes, the “yellow leaves after freezing” value [3] was ~20% and the “change from solvent treated seedlings in every growth category” value [4] was “significant change”.
